Measured values reported in EP0369810A2, “PAF antagonists as anti-hyperendothelinemia agents” (Takeda Chemical Industries, Ltd., priority 1988, dated 1990).
Where two headings read alike, the source gives them in different places. Marks after values point to notes of the source that are not given here.

What was measured:
Acute toxicities = settings: rat, in vivo
Procedure: PAF antagonists were administered to male Wistar rats (4-6 weeks old) to observe the acute toxicities.

endothelin [1] = test: Protective effects against endothelin-induced death in mice; type: in vivo; settings: mouse, survival 1 h after endothelin
Procedure: (§1) Male SD-Jcl rats (5-6 weeks old) and male Jcl-ICR mice (5-6 weeks 01 d) were used without anesthetization.
(§2) Physiological saline or drug-dissolved physiological saline was given via the tail vein to a rat in a volume of 1 ml/kg and to a mouse in a volume of 5 ml/kg. Five minutes later, the same volume of endothelin (Peptide Institute; 5 nmol/kg)-dissolved physiological saline was intravenously given.
(§3) In the case of oral administration of a drug, the drug was given in 10 ml/kg of 5% gum arabic suspension one hour before the administration of endothelin.
(§4) One hour after the administration of endothelin, the survival rates were measured, and the effect of the drug was evaluated.

glomerulonephritic rats = test: Antiproteinuric action in glomerulonephritic rats; type: in vivo, rat; settings: urinary excretion; 100 mg/kg p.o. once a day for 4 weeks
Procedure: Glomerulonephritis in rats was prepared according to the method by Nagamatsu et al. (Folia Pharmacol. Jpn. 78, 491, 1981). The mixture of 3 mg rabbit serum albumin (RSA) and the same amount of complete Freund's adjuvant was prepared. One ml/rat (3 mg/rat) of the mixture was first injected subcutaneously to 5 weeks old Spraque Dawley (Jcl) rats. 2 weeks later, RSA (1 mg/rat) was injected intravenously 3 times a week for 8 weeks. At the point of RSA injection for the first 4 weeks, urine was collected from the rat for 24 hours to measure urinary excretion of albumin and total protein. According to the value of albumin and total protein obtained, the rats were separated into 2 groups of the control and the treatment group. Then, the drug or vehicle was orally given once a day for 4 weeks and the 24 hour-urine at the 4 week of the dosage was collected for measurement of urinary albumin and total protein.

[2] = system: cultured rat vascular smooth muscle cells; test: Inhibition of endothelin-induced elevation of cytosolic calcium concentration (fura-2 fluorescence); type: cell-based; settings: endothelin 4 x 10-^9 M, read-out: Inhibitory activity (%); for inhibition at 0.4 µM: compound 4 x 10^-7 M; for inhibition at 0.04 µM: compound 4 x 10^-8 M; for inhibition at 4 µM: compound 4 x 10^-6 M
Procedure: A glass cover slide coated with 4 µM fura-2-loaded cultured rat vascular smooth muscle cells was inserted into a quartz cuvette which contained 2.5 ml HEPES buffer (pH 7.2). On this occasion, the glass cover slide was fixed on a diagonal of 45° to the direction of excitation light. The fluoroscence was measured in a Hitachi F-4000 spectrofluorimeter. Wavelengths were set at 340 nm and 380 nm for excitation and 505 nm for emission. Fmax and Fmin were estimated after addition of ionomycin (2 µM; Calbiochem) as calcium ionophore and EGTA (8 mM) as calcium ion-chelator, respectively. The cytosolic calcium ion concentration [Ca^++]i values were calculated by Tsien et al. formula: [Ca^++]-i = kd*(F-Fmin)/(Fmax-F) with modifications assuming kd = 224 nM, i.e. by the formulas: • [Ca^++]i = kd*(R-Rmin)*Sf2/(Rmax-R)*Sb2 • R = [D(W1)-AutoF1]/[D(W2)-AutoF2] • D(Wi) : Determined value at wavelength for excitation W1 • D(W2) : Determined value at wavelength for excitation W2 • AutoF1 : self-fluoroscence at W1 • AutoF2 self-fluoroscence at W2 • Rmin : R in zero Ca^++ = Fmin (W1)/Fmin (W2) • Rmax : R in Ca^++-saturated concentration = Fmax (W1)/Fmax (W2) • Sf2 : strength of fluoroscence by free Ca^++ at W2 • Sb2 : strength of fluoroscence by bound Ca^++ at W2 The experiments were carried out as follows: PAF antagonists, the compounds [II], [IV] and [Vllla], were added to the solution in the cuvette. Incubation was conducted for 5 minutes and then endothelin (4 x 10-^9 M) was added to observe changes of strength of fluoroscence.

M-SHRsp = test: Protective action on ischemic cerebral damage in M-SHRsp (bilateral carotid occlusion and reperfusion); type: in vivo, rat; settings: 24 hour reperfusion
Procedure: Male malignant spontaneously hypertensive rats (M-SHRsp), 8 weeks old, were used. The carotid artery was occluded bilaterally for 1 hour under conscious condition followed by reperfusion for 24 hours. The drug was orally given 1 hour prior to the occlusion of the artery. The survival rate of rats was estimated during the 24 hour reperfusion.

endothelin [3] = test: Protective effects against endothelin-induced death in rats; type: in vivo; settings: rat, survival 1 h after endothelin
Procedure: as §1, §2, §3, §4

endothelin [4] = test: Protective effects against arrhythmia-inducing activity of endothelin in rats (electrocardiogram); type: in vivo, rat; settings: anesthetized rats; for PVB counts (15 min.): premature ventricular beats; for VF incidence: ventricular fibrillation; for VT incidence: ventricular tachycardia
Procedure: Male SD-Jcl rats (9 weeks old) were anesthetized with pentobarbital (50 mg/kg, intraperitoneal injection), and electrocardiogram (Lead II) was monitored on a polygraph. A drug was dissolved in physiological saline and given via the tail vein in a volume of 1 ml/kg. Five minutes later, endothelin (5 nmol/kg) was intravenously administered. In the case of oral administration, a drug was given in 10 ml/kg of 5% gum arabic suspension one hour before the administration of endothelin.

[5] = system: Male Spraque Dawley (Jcl) rats; test: Effect on acute renal failure in rats (bilateral renal artery occlusion and reperfusion); type: in vivo, rat; settings: oral dose of 30 mg/kg 1 hour prior to occlusion; 45 min occlusion, 20 hours reperfusion
Procedure: Male Spraque Dawley (Jcl) rats, 5 weeks old, were anesthetized with sodium pentobarbital (50 mg/kg, i.p.) and the renal artery was occluded bilaterally for 45 minutes followed by reperfusion for 20 hours. The blood was collected from the abdominal aorta under anesthesia for measurement of blood urea nitrogen (BUN).

[6] = 30 mg/kg i.v. 5 min before endothelin 5 nmol/kg i.v.
[7] = sustained increase of cytosolic calcium
[8] = transient increase of cytosolic calcium
[9] = 100 mg/kg p.o. 1 h before endothelin 5 nmol/kg i.v.
[10] = 30 mg/kg p.o. 1 h before endothelin 5 nmol/kg i.v.
[11] = 3 mg/kg i.v. 5 min before endothelin 5 nmol/kg i.v.
[12] = 1 mg/kg i.v. 5 min before endothelin 5 nmol/kg i.v.

Structure (SMILES): CCCCCCCCCCCCCCCCCCNC(=O)OCC(COP(=O)([O-])OCC[n+]1ccsc1)OC (stereo not drawn) [Compd [VI], 3-(N-n-octadenylcarbamoyloxy)-2-methoxypropyl 2-thiazolioethyl phosphate]
- LD50 (Acute toxicities; iv, male Wistar rats): > 50 mg/kg
- Protective effect to death Survival Rate (%) (endothelin [1]; [6]): 36* %
- Protective effect to death Survival Total (endothelin [1]; [6]): 5/14

Structure (SMILES): COc1cc2c(cc1OC)CCCC(C(=O)N1CCN(C(=O)c3cc(OC)c(OC)c(OC)c3)CC1)=C2 [Compd [IV], 1-(2,3-dimethoxy-6,7-dihydro-5H-benzocycloheptenyl-8-carbonyl)-4-(3,4,5-trimethoxybenzoyl)piperazine]
- albumin (glomerulonephritic rats): 17 ± 11 mg/100 g/24 hr
- total protein (glomerulonephritic rats): 43 ± 16 mg/100 g/24 hr
- inhibition at 0.4 µM [2, 7]: 52.6%
- inhibition at 0.4 µM [2, 8]: 76.2%
- LD50 (Acute toxicities; po): > 1000 mg/kg
- Survival rate (24 hr) (M-SHRsp; 1 mg/kg p.o. 1 hour prior to occlusion): 2/7
- Survival rate (24 hr) (M-SHRsp; 10 mg/kg p.o. 1 hour prior to occlusion): 6/7*
- Survival rate (24 hr) (M-SHRsp; 10 mg/kg p.o. 1 hour prior to occlusion, listed as compound [IV]): 6 out of 7
- Survival rate (24 hr) (M-SHRsp; 100 mg/kg p.o. 1 hour prior to occlusion): 4/4*
- Survival rate (24 hr) (M-SHRsp; 100 mg/kg p.o. 1 hour prior to occlusion, listed as compound [IV]): all out of 4
- Protective effect to death Survival Rate (%) (endothelin [1]; [9]): 100** %
- Protective effect to death Survival Total (endothelin [1]; [9]): 15/15

Structure (SMILES): Cc1nnc2n1-c1sc(CCC(=O)N3CCOCC3)cc1C(c1ccccc1Cl)=NC2 [Compd [IX], reference compound]
- Protective effect to death Survival Rate (%) (endothelin [3]; [10]): 40** %
- Protective effect to death Survival Total (endothelin [3]; [10]): 6/15
- PVB counts (15 min.) (endothelin [4]; [10]): 12±5
- VF incidence (endothelin [4]; [10]): 4/6**
- VT incidence (endothelin [4]; [10]): 4/6**
- Protective effect to death Survival Rate (%) (endothelin [1]; [10]): 53** %
- Protective effect to death Survival Total (endothelin [1]; [10]): 8/15

Structure (SMILES): CCC[n+]1cc(Br)cc(C(=O)N(CCC(=O)NCCOC(=O)N2CCc3ccccc3C2)c2ccccc2)c1 [[VIIIa]]
- inhibition at 0.4 µM [2, 7]: 100%
- inhibition at 0.04 µM [2, 7]: 72.1%
- inhibition at 4 µM [2, 8]: 78.2%
- inhibition at 0.4 µM [2, 8]: 64.2%

Structure (SMILES): CCCCCCCCCCCCCCCCCCNC(=O)OCC(COC(=O)N(Cc1cccc[n+]1CC)C(C)=O)OC.[Cl-] (stereo not drawn) [Compd [II], 2-[N-acetyl-N-(2-methoxy-3-octadecylcarbamoyloxypropoxycarbonyl)-aminomethyl]-1-ethylpyridinium chloride]
- Protective effect to death Survival Rate (%) (endothelin [3]; [11]): 94** %
- Protective effect to death Survival Total (endothelin [3]; [11]): 15/16
- inhibition at 0.4 µM [2, 7]: 100%
- inhibition at 0.04 µM [2, 7]: 100%
- inhibition at 4 µM [2, 8]: 100%
- inhibition at 0.4 µM [2, 8]: 100%
- LD50 (Acute toxicities; iv, male Wistar rats): > 20 mg/kg
- PVB counts (15 min.) (endothelin [4]; [12]): 9±8
- VF incidence (endothelin [4]; [12]): 2/9**
- VT incidence (endothelin [4]; [12]): 3/9**
- Protective effect to death Survival Rate (%) (endothelin [1]; [11]): 100** %
- Protective effect to death Survival Total (endothelin [1]; [11]): 10/10

Structure (SMILES): CCC[n+]1cc(Br)cc(C(=O)N(CCC(=O)NCCOC(=O)N2CCc3ccccc3C2)c2ccccc2)c1 [Compd [VIIIb]]
- Blood urea nitrogen (BUN) [5]: 88 ± 2 mg/dL
